Counter-ions that a name gives are not always drawn. Like-named read-outs stand apart in the source and are kept apart here.
Molecular target: T1, interaction of PKCι polypeptides with PAR6 polypeptides (Homo sapiens, UniProt P41743)
T1 construct: amino acids 1-113 or a full-length PKCι polypeptide; 6xHis; made in house
T1 sequence (P41743 10-122): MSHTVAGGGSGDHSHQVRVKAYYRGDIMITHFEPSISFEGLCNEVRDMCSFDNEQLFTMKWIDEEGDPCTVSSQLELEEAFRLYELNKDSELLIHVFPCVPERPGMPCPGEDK
Assay: Secondary screen: PYN bound to plate-immobilised biotin-tagged PAR6
Assay type: binding
Conditions: for dose-response analysis using the secondary screening assay: increasing amounts, e.g. 0, 0.1, 1, 10, 100, and 100 μM
Procedure: Multiple test compounds that were classified as hits in the primary screen as well as additional related compounds were evaluated in a secondary screen designed as follows. Briefly, a 96-well microtiter plate coated with streptavidin (Nunc #436014) was incubated for 2-4 hours at room temperature with 100 μl of a 20-30 μg/ml solution of biotin-tagged PAR6 (whole polypeptide) in phosphate-buffered saline containing Tween-20 (PBST). Plates were washed twice with PBST, then once with incubation buffer (50 mM Tris, pH 8.0; 135 mM NaCl; 10% glycerol; 0.002% EDTA). Incubation buffer (50 μl) was added to each well. The compounds to be tested were added (10 μl) followed by PYN (50 μl) diluted in incubation buffer to an approximate concentration of 4000-5000 relative fluorescent units per 50 μl. Plates were incubated overnight at 4° C. Plates were washed twice with incubation buffer, after which 50 μl incubation buffer was added to retain moisture in the wells. The amount of PYN bound on the plates was determined by measuring yellow fluorescence (532/526) in a Typhoon imager. Fluorescence was quantitated by Softmax Pro software.
A dose-response analysis was performed using the secondary screening assay and increasing amounts (e.g., 0, 0.1, 1, 10, 100, and […]) of gossypol, hexestrol, thimerosal, ebselen, ATG, ATM, ellagic acid, cisplatin, apomorphine, or phenylmercuric acetate.

[1] = amount of PYN bound to biotin-tagged PAR6 plates

Compound: C[n+]1c2cc(N)ccc2cc2ccc(N)cc21.[Cl-] [Acriflavinium hydrochloride]
- Secondary Screen [1]: No effect

Compound: N=C(N)NC(=O)c1nc(Cl)c(N)nc1N [Amiloride]
- Secondary Screen [1]: No effect

Compound: CCN(CC)Cc1cc(Nc2ccnc3cc(Cl)ccc23)ccc1O [Amodiaquine]
- Secondary Screen [1]: No effect

Compound: CCCc1ncc(C[n+]2ccccc2C)c(N)n1 [Amprolium]
- Secondary Screen [1]: No effect

Compound: CN1CCc2cccc3c2[C@H]1Cc1ccc(O)c(O)c1-3 [Apomorphine]
- Secondary Screen [1]: Confirmed
- Secondary Screen (amount of PYN bound to biotin-tagged PAR6 plates, listed as apomorphine): confirmed
- dose-response analysis using the secondary screening assay: dose-dependent response was detected

Compound: COc1ccc(C(Cl)=C(c2ccc(OC)cc2)c2ccc(OC)cc2)cc1 [Chlorotrianisene]
- Secondary Screen [1]: No effect (related compound

Compound: Oc1cc(O)c2c(c1)O[C@H](c1ccc(O)c(O)c1)[C@@H](O)C2 [Cianidanol]
- Secondary Screen [1]: No effect (related compound

Compound: N.N.[Cl][Pt][Cl] [Cisplatin]
- Secondary Screen [1]: Confirmed
- Secondary Screen (amount of PYN bound to biotin-tagged PAR6 plates, listed as cisplatin): confirmed
- dose-response analysis using the secondary screening assay: dose-dependent response was detected

Compound: Cc1cc(N)c2ccccc2[n+]1CCCCCCCCCC[n+]1c(C)cc(N)c2ccccc21 [Dequalinium chloride]
- Secondary Screen [1]: No effect

Compound: O=c1oc2c(O)c(O)cc3c(=O)oc4c(O)c(O)cc1c4c23 [Ellagic acid]
- Secondary Screen [1]: Confirmed
- Secondary Screen (amount of PYN bound to biotin-tagged PAR6 plates, listed as ellagic acid): confirmed
- dose-response analysis using the secondary screening assay: dose-dependent response was detected

Compound: CNC[C@H](O)c1ccc(O)c(O)c1 [Epinephrine bitartrate]
- Secondary Screen [1]: No effect

Compound: CCC(=O)O[C@H]1[C@H](O[C@@H]2[C@@H](C)[C@H](O[C@H]3C[C@@](C)(OC)[C@@H](O)[C@H](C)O3)[C@@H](C)C(=O)O[C@H](CC)[C@@](C)(O)[C@H](O)[C@@H](C)C(=O)[C@H](C)C[C@@]2(C)O)O[C@H](C)C[C@@H]1N(C)C [Erythromycin propionate lauryl sulfate]
- Secondary Screen [1]: No effect

Compound: C[C@]12CC[C@@H](O)C[C@H]1CC[C@@H]1[C@@H]2CC[C@]2(C)C(=O)CC[C@@H]12 [Etiocholanolone]
- Secondary Screen: No effect

Compound: Nc1nc2ncc(CNc3ccc(C(=O)N[C@@H](CCC(=O)O)C(=O)O)cc3)nc2c(=O)[nH]1 [Folic acid]
- Secondary Screen [1]: No effect

Compound: O=C1OCCN1/N=C/c1ccc([N+](=O)[O-])o1 [Furazolidone]
- Secondary Screen [1]: No effect

Compound: O=C(O)c1cc(O)ccc1O [Gentisic acid]
- Secondary Screen [1]: No effect

Compound: O=C(OCC(O)CO)c1ccccc1Nc1ccnc2cc(Cl)ccc12 (stereo not shown) [Glafenine]
- Secondary Screen [1]: No effect

Compound: COc1ccc2c(c1OC)C(=O)O[C@@H]2[C@H]1c2cc3c(cc2CCN1C)OCO3 [Hydrastine]
- Secondary Screen [1]: No effect

Compound: O=C(O)c1cc2ccccc2c(Cc2c(O)c(C(=O)O)cc3ccccc23)c1O.OCCOCCN1CCN(C(c2ccccc2)c2ccc(Cl)cc2)CC1 [Hyydroxyzine pamoate]
- Secondary Screen [1]: No effect

Compound: CC(C)NCC(O)c1ccc(O)c(O)c1 (stereo not shown) [Isoproterenol hydrochloride]
- Secondary Screen [1]: No effect

Compound: CC(=O)/N=c1/sc(S(N)(=O)=O)nn1C [Methazolamide]
- Secondary Screen [1]: No effect

Compound: CC[C@@H](CO)NC(=O)[C@@H]1C=C2c3cccc4[nH]cc(c34)C[C@H]2N(C)C1 [Methylergonovine]
- Secondary Screen [1]: No effect

Compound: CC[C@@]1([C@@H]2O[C@@H]([C@H]3O[C@@](O)(CO)[C@H](C)C[C@@H]3C)C[C@@H]2C)CC[C@H]([C@]2(C)CC[C@]3(C[C@H](O)[C@@H](C)[C@@H]([C@@H](C)[C@@H](OC)[C@H](C)C(=O)O)O3)O2)O1 [Monensin, sodium]
- Secondary Screen [1]: No effect

Compound: COc1c(C)c2c(c(O)c1C/C=C(\C)CCC(=O)O)C(=O)OC2 [Mycophenolic acid]
- Secondary Screen [1]: No effect

Compound: C[C@@H]1O[C@@H](O[C@H]2[C@H](Oc3cc(O)c4c(c3)O[C@H](c3ccc(O)cc3)CC4=O)O[C@H](CO)[C@@H](O)[C@@H]2O)[C@H](O)[C@H](O)[C@H]1O [Naringin]
- Secondary Screen [1]: No effect

Compound: Nc1ccc(/N=N/c2ccccc2)c(N)n1 [Phenazopyridine]
- Secondary Screen [1]: No effect

Compound: CC(=O)[O-].[Hg+][c]1ccccc1 [Phenylmercuric acetate]
- Secondary Screen (amount of PYN bound to biotin-tagged PAR6 plates, acetate): Confirmed
- Secondary Screen (amount of PYN bound to biotin-tagged PAR6 plates, listed as phenylmercuric acetate, acetate): confirmed
- dose-response analysis using the secondary screening assay: dose-dependent response was detected

Compound: COc1cc(NC(C)CCCN)c2ncccc2c1 (stereo not shown) [Primaquine phosphate]
- Secondary Screen [1]: No effect

Compound: CC(C)[N+](C)(CCOC(=O)C1c2ccccc2Oc2ccccc21)C(C)C [Propantheline bromide]
- Secondary Screen [1]: No effect

Compound: CN1CCCN=C1/C=C/c1cccs1 [Pyrantel pamoate]
- Secondary Screen [1]: Confirmed
- Secondary Screen (amount of PYN bound to biotin-tagged PAR6 plates, listed as pyrantel pamoate): confirmed

Compound: O=C1C=CC(=C(c2ccc(O)cc2)c2ccc(O)cc2)C=C1 [Rosolic acid]
- Secondary Screen [1]: No effect

Compound: CC1=C(CC(=O)O)c2cc(F)ccc2/C1=C\c1ccc([S+](C)[O-])cc1 (stereo not shown) [Sulindac]
- Secondary Screen [1]: No effect

Compound: C[CH2][Hg][S]c1ccccc1C(=O)[O-].[Na+] [Thimerosal]
- Secondary Screen [1]: Confirmed
- Secondary Screen (amount of PYN bound to biotin-tagged PAR6 plates, listed as thimerosal): confirmed
- dose-response analysis using the secondary screening assay: dose-dependent response was detected

Compound: CC1=C(/C=C/C(C)=C/C=C/C(C)=C/C(=O)O)C(C)(C)CCC1 [Tretinon]
- Secondary Screen [1]: No effect

Compound: CN(C)CCCN1c2ccccc2Sc2ccc(C(F)(F)F)cc21 [Triflupromazine]
- Secondary Screen [1]: No effect

Compound: C[C@]12CC[C@@H]3c4ccc(O)cc4CC[C@H]3[C@@H]1CC[C@@H]2O [b-estradiol]
- Secondary Screen [1]: had no effect)

Compound: CC1=C(C(=O)O)N2C(=O)[C@@H](NC(=O)[C@H](N)c3ccc(O)cc3)[C@H]2SC1 [cefadroxil]
- Secondary Screen [1]: had no effect)

Compound: [H]/N=C(\N/C(=N/[H])NCCCCCCNC(=N)NC(=N)Nc1ccc(Cl)cc1)Nc1ccc(Cl)cc1 [chlorhexidine]
- Secondary Screen [1]: No effect

Compound: O=C(CCCN1CC=C(n2c(=O)[nH]c3ccccc32)CC1)c1ccc(F)cc1 [droperidol]
- Secondary Screen [1]: droperidol had no effect)

Compound: CCn1cc(C(=O)O)c(=O)c2cc(F)c(N3CCNCC3)nc21 [enoxacin]
- Secondary Screen [1]: lomefloxacin had no effect)

Compound: COc1ccc([C@@H]2CC(=O)c3c(O)cc(O[C@@H]4O[C@H](CO[C@@H]5O[C@@H](C)[C@H](O)[C@@H](O)[C@H]5O)[C@@H](O)[C@H](O)[C@H]4O)cc3O2)cc1O [hespiridin]
- Secondary Screen [1]: hespiridin had no effect)

Compound: CC[C@H](c1ccc(O)cc1)[C@@H](CC)c1ccc(O)cc1 [hexestrol]
- Secondary Screen [1]: hexestrol was confirmed)
- dose-response analysis using the secondary screening assay: dose-dependent response was detected

Compound: CCn1cc(C(=O)O)c(=O)c2cc(F)c(N3CCNC(C)C3)c(F)c21 (stereo not shown) [lomefloxacin]
- Secondary Screen [1]: lomefloxacin had no effect)

Compound: Antimycin A
- Secondary Screen [1]: No effect

Compound: Benzalkonium chloride
- Secondary Screen [1]: No effect

Compound: Veratrine sulfate
- Secondary Screen [1]: No effect
